Assay results reported in patent publication US20230263822A1, “MODULATION OF FACTOR 11 EXPRESSION” (Ionis Pharmaceuticals, Inc., priority 2008, published 2023).

Test: Hematology assays in cynomolgus monkeys (Example 45)
Assay type: in vivo
Description: Groups, each consisting of two male and three female monkeys, were injected subcutaneously with ISIS 416838, ISIS 416850, ISIS 416858, ISIS 416864, or ISIS 417002 in escalating doses. Antisense oligonucleotide was administered to the monkeys at 5 mg/kg three times per a week for week 1; 5 mg/kg twice per week for weeks 2 and 3; 10 mg/kg three times per week for week 4; 10 mg/kg twice per week for weeks 5 and 6; 25 mg/kg three times per week for week 7; and 25 mg/kg twice per week for weeks 8, 9, 10, 11, and 12. One control group, consisting of two male and three female monkeys, was injected subcutaneously with PBS according to the same dosing regimen. An additional experimental group, consisting of two male and three female monkeys, was injected subcutaneously with ISIS 416850 in a chronic, lower dose regimen. Antisense oligonucleotide was administered to the monkeys at 5 mg/kg three times per week for week 1; 5 mg/kg twice per week for week 2 and 3; 10 mg/kg three times per week for week 4; and 10 mg/kg twice per week for weeks 5 to 12. Body weights were measured weekly. Blood samples were collected 14 days and 5 days before the start of treatment and subsequently once per week for Factor 11 protein activity analysis in plasma, fibrinogen measurement, PT and aPTT measurements, bleeding times, and measurement of various hematologic factors. On day 85, the monkeys were euthanized by exsanguination while under deep anesthesia, and organs harvested for further analysis.
The ISIS oligonucleotide, ISIS 416850, given with the chronic dose regimen is distinguished from the other oligonucleotides with an asterisk (*).

[1] = day 43, chronic dose regimen (*)
[2] = day 43, escalating dose regimen
[3] = day 50, chronic dose regimen (*)
[4] = day 50, escalating dose regimen
[5] = day 57, escalating dose regimen
[6] = day 64, escalating dose regimen
[7] = day 71, escalating dose regimen
[8] = day 78, escalating dose regimen
[9] = day 85, escalating dose regimen
[10] = day −5, chronic dose regimen (*)
[11] = day −5, escalating dose regimen
[12] = day −14, chronic dose regimen (*)
[13] = day −14, escalating dose regimen

ISIS 416850: MOE gapmer, nucleobases 1275 to 1318 of SEQ ID NO: 1 (Table 8) (antisense TGCACAGTTTCTGGCAGGCC; MOE gapmer, wing and gap sizes not given here)
monocytes [1]: 1.8% | neutrophils [1]: 61% | platelet count [1]: 391000 µL⁻¹ | reticulocytes [1]: 1.0% | MCH [2]: 23 pg | MCHC [2]: 29 g/dL | MCV [2]: 79 fL | RBC count [2]: 5.2e+06 µL⁻¹ | WBC count [2]: 9000 µL⁻¹ | hematocrit [2]: 40% | hemoglobin [2]: 11.8 g/dL | basophils (day 50): 0.3% | eosinophils (day 50): 1.2% | lymphocytes (day 50): 49% | monocytes (day 50): 3.7% | neutrophils (day 50): 45% | platelet count (day 50): 487000 µL⁻¹ | reticulocytes (day 50): 2.7% | MCH [3]: 23 pg | MCHC [3]: 29 g/dL | MCV [3]: 80 fL | RBC count [3]: 5.3e+06 µL⁻¹ | WBC count [3]: 15000 µL⁻¹ | basophils [3]: 0.2% | eosinophils [3]: 0.3% | hematocrit [3]: 42% | hemoglobin [3]: 11.9 g/dL | lymphocytes [3]: 35% | monocytes [3]: 1.8% | neutrophils [3]: 62% | platelet count [3]: 351000 µL⁻¹ | reticulocytes [3]: 1.2% | MCH [4]: 23 pg | MCHC [4]: 28 g/dL | MCV [4]: 83 fL | RBC count [4]: 5.2e+06 µL⁻¹ | WBC count [4]: 11000 µL⁻¹ | hematocrit [4]: 42% | hemoglobin [4]: 11.8 g/dL | basophils (day 57): 0.4% | eosinophils (day 57): 1.0% | lymphocytes (day 57): 45% | monocytes (day 57): n.d.3.2% | neutrophils (day 57): 49% | platelet count (day 57): 528000 µL⁻¹ | reticulocytes (day 57): 2.0% | MCH [5]: 23 pg | MCHC [5]: 29 g/dL | MCV [5]: 80 fL | RBC count [5]: 5.2e+06 µL⁻¹ | WBC count [5]: 11000 µL⁻¹ | hematocrit [5]: 42% | hemoglobin [5]: 12.1 g/dL | basophils (day 64): 0.4% | eosinophils (day 64): 1.3% | lymphocytes (day 64): 53% | monocytes (day 64): n.d.3.5% | neutrophils (day 64): 41% | platelet count (day 64): 496000 µL⁻¹ | reticulocytes (day 64): 1.7% | MCHC [6]: 29 g/dL | MCV [6]: 79 fL | RBC count [6]: 5.4e+06 µL⁻¹ | WBC count [6]: 11000 µL⁻¹ | hematocrit [6]: 43% | hemoglobin [6]: 12.3 g/dL | basophils (day 71): 0.3% | eosinophils (day 71): 1.8% | lymphocytes (day 71): 61% | monocytes (day 71): n.d.4.7% | neutrophils (day 71): 27% | platelet count (day 71): 465000 µL⁻¹ | reticulocytes (day 71): 1.8% | MCHC [7]: 28 g/dL | MCV [7]: 80 fL | RBC count [7]: 5.4e+06 µL⁻¹ | WBC count [7]: 15000 µL⁻¹ | hematocrit [7]: 43% | hemoglobin [7]: 12.3 g/dL | basophils (day 78): 0.3% | eosinophils (day 78): 1.0% | lymphocytes (day 78): 51% | monocytes (day 78): n.d.4.5% | neutrophils (day 78): 42% | platelet count (day 78): 449000 µL⁻¹ | reticulocytes (day 78): 1.8% | MCHC [8]: 29 g/dL | MCV [8]: 79 fL | RBC count [8]: 5.3e+06 µL⁻¹ | WBC count [8]: 12000 µL⁻¹ | hematocrit [8]: 41% | hemoglobin [8]: 12.2 g/dL | basophils (day 85): 0.3% | eosinophils (day 85): 1.2% | lymphocytes (day 85): 34% | monocytes (day 85): n.d.3.5% | neutrophils (day 85): 60% | platelet count (day 85): 458000 µL⁻¹ | reticulocytes (day 85): 2.3% | MCHC [9]: 30 g/dL | MCV [9]: 77 fL | RBC count [9]: 5.5e+06 µL⁻¹ | WBC count [9]: 15000 µL⁻¹ | hematocrit [9]: 42% | hemoglobin [9]: 12.7 g/dL | basophils (day −5): 0.2% | eosinophils (day −5): 1.6% | lymphocytes (day −5): 43% | monocytes (day −5): 2.8% | neutrophils (day −5): 52% | platelet count (day −5): 573000 µL⁻¹ | reticulocytes (day −5): 1.2% | MCH [10]: 23 pg | MCHC [10]: 30 g/dL | MCV [10]: 78 fL | RBC count [10]: 5.5e+06 µL⁻¹ | WBC count [10]: 15000 µL⁻¹ | basophils [10]: 0.3% | eosinophils [10]: 0.7% | hematocrit [10]: 43% | hemoglobin [10]: 12.8 g/dL | lymphocytes [10]: 43% | monocytes [10]: 2.4% | neutrophils [10]: 53% | platelet count [10]: 434000 µL⁻¹ | reticulocytes [10]: 0.8% | MCH [11]: 23 pg | MCHC [11]: 30 g/dL | MCV [11]: 77 fL | RBC count [11]: 5.5e+06 µL⁻¹ | WBC count [11]: 13000 µL⁻¹ | hematocrit [11]: 43% | hemoglobin [11]: 12.7 g/dL | basophils (day −14): 0.2% | eosinophils (day −14): 1.0% | lymphocytes (day −14): 47% | monocytes (day −14): 2.3% | neutrophils (day −14): 49% | platelet count (day −14): 528000 µL⁻¹ | reticulocytes (day −14): 1.7% | MCH [12]: 24 pg | MCHC [12]: 29 g/dL | MCV [12]: 81 fL | RBC count [12]: 5.5e+06 µL⁻¹ | WBC count [12]: 15000 µL⁻¹ | basophils [12]: 0.2% | eosinophils [12]: 0.5% | hematocrit [12]: 44% | hemoglobin [12]: 12.8 g/dL | lymphocytes [12]: 47% | monocytes [12]: 2.9% | neutrophils [12]: 48% | platelet count [12]: 387000 µL⁻¹ | reticulocytes [12]: 1.1% | MCH [13]: 23 pg | MCHC [13]: 30 g/dL | MCV [13]: 78 fL | RBC count [13]: 5.3e+06 µL⁻¹ | WBC count [13]: 13000 µL⁻¹ | hematocrit [13]: 41% | hemoglobin [13]: 12.4 g/dL
